The text below walks through data of article PMC12597212, “Biaryl Phosphate‐Based Inhibitors of the Transcription Factor STAT4” (Chemmedchem, 2025).

For orientation: IC50 means the concentration that gives 50% inhibition. The term Ki denotes a measure of affinity in units of concentration, obtained from inhibition or displacement. Broadly, the Kd is the concentration at which binding is half-saturated. Low readings indicate higher affinity, high ones lower affinity.

One assay addresses T1, STAT1 (Homo sapiens, UniProt P42224).
T1 sequence (P42224 1-750): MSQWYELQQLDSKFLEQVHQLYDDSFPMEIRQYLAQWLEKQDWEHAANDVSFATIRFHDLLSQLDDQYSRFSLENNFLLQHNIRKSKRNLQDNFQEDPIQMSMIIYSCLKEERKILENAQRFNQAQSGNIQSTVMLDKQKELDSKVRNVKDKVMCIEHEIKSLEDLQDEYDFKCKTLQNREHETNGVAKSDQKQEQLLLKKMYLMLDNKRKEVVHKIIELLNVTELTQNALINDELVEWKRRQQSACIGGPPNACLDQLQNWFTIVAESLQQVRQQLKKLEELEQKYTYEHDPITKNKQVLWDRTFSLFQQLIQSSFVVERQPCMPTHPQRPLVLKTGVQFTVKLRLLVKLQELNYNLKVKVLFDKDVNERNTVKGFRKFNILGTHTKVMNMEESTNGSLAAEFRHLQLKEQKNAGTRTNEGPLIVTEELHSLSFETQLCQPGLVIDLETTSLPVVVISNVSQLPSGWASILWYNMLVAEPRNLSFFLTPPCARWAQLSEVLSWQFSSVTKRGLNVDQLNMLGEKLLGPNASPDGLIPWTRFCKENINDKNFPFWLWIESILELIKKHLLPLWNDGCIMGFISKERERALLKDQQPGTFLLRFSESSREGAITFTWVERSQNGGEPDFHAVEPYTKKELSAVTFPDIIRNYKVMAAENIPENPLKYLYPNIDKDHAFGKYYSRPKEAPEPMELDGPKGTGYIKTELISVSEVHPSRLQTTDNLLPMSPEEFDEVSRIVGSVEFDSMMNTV
As to the kind of experiment: Competitive fluorescence polarization (FP) assay, STAT1. Type of assay: binding. The conditions noted are these: for IC50: 80-92 nM STAT1, 10 nM tracer peptide; for Ki: Ki calculated from IC50, mean ± SD, n = 3. As for the experimental part:
(§1) Fluorescence polarization assays
(§2) STAT4; 5-carboxyfluorescein-GpYDKPHVL for STAT1; 5-carboxyfluorescein-GpYLPQTV- […]
(§3) fluorescent-labeled peptide was added. Samples were transferred to 384-well microtiter plates […]
(§4) Experiments were carried out in triplicate. Percent binding was calculated based on a logarithmic curve fit using OriginPro 8G software. Conversion of IC50 values to Ki-values was […]
(§5) Error bars represent standard deviations. […]
(§6) Experiments were carried out in triplicate. […]

The next assay has as its target T2, STAT6 (Homo sapiens, UniProt P42226).
T2 sequence (P42226 1-847): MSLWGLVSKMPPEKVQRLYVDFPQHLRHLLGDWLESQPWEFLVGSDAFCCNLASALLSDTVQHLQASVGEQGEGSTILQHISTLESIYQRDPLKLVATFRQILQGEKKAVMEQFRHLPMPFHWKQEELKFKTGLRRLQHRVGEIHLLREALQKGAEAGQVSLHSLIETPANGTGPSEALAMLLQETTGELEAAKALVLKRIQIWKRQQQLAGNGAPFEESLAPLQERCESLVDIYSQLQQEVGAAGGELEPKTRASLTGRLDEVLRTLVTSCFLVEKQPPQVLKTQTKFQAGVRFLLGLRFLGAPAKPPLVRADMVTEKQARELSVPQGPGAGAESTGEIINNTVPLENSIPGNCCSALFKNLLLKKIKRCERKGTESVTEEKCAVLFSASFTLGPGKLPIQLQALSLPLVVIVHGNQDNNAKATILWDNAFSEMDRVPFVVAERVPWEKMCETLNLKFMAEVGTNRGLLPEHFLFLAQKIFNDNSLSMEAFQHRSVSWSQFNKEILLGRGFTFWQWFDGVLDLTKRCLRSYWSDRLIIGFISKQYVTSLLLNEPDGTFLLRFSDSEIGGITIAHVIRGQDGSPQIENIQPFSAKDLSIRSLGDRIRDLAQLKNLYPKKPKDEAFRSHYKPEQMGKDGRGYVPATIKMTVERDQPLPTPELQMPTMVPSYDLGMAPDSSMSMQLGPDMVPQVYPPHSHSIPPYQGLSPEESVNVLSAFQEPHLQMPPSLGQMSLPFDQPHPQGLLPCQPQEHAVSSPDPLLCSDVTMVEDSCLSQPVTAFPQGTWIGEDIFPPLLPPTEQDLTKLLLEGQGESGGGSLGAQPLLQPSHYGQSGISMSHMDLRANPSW
As to the kind of experiment: Competitive fluorescence polarization (FP) assay, STAT6. The conditions noted are these: for IC50: 106 nM STAT6, 10 nM tracer peptide; for Ki: Ki calculated from IC50, mean ± SD, n = 3. Type of assay: binding. How it is done:
as §1, §2, §3, §4, §5, §6

The next assay deals with T3, STAT4 (Homo sapiens, UniProt Q14765).
T3 construct: 6xHis; made in house
T3 sequence (Q14765 1-748): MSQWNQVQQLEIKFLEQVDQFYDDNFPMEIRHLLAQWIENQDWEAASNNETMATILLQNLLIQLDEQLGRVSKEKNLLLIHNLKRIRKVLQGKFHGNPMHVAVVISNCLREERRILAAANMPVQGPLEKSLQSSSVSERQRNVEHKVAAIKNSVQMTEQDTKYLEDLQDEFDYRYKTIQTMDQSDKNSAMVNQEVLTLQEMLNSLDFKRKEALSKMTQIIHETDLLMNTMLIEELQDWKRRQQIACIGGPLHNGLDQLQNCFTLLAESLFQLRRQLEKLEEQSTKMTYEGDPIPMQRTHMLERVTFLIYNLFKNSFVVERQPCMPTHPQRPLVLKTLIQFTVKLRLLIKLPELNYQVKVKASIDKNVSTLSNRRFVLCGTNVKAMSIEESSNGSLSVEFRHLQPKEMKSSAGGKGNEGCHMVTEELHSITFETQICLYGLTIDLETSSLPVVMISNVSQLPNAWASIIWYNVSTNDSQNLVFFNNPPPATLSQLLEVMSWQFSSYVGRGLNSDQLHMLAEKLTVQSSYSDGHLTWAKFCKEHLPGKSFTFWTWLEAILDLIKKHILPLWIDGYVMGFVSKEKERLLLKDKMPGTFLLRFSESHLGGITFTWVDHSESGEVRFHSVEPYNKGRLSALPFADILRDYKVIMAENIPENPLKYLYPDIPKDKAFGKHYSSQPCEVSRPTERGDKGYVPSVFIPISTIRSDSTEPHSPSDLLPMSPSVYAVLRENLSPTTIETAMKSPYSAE
As to the kind of experiment: Isothermal titration calorimetry (ITC), binding to STAT4. The conditions noted are these: 10 µM STAT4, 100 µM ligand, 25 °C, 10 mM Tris pH 8.0, 50 mM NaCl, 1 % DMSO; n = 3. As for the experimental part:
as §3, §4
Error bars represent standard deviations.
Isothermal Titration Calorimetry […]
dialysis tubing with a 50 kDa cut-off. ITC experiments were performed using a VP-ITC Micro […]
ITC buffer (final ligand concentration: 100 µM). 1 % (v/v) DMSO was added to the buffers […]
detection of dilution heat. Proteins were degassed before the experiments using a ThermoVac sample degassing station. […]
site binding model was used for data fitting. Figures were generated using GUSSI. Experiments were carried out in triplicate.
General synthetic methods
Method 1: Suzuki coupling […]
three times with ethyl acetate. The combined organic layers were washed with water, after which they were dried over Na2SO4 and filtered. The volatiles were removed under reduced
For orientation: In ITC the heat of successive injections is recorded.

Take `O=P(O)(O)Oc1ccc2c(c1)Cc1ccccc1-2` [compound 11]: at STAT1, the IC50 stood at 14.3 µM and the inhibitory constant (Ki) is 6.5 ± 0.2 µM. Further, at STAT6, the 50% inhibitory concentration (IC50) came to 23 µM and the Ki was 12 ± 1 µM.
As for `O=P(O)(O)Oc1ccc2c(c1)oc1ccccc12` [compound 12], on STAT1, the half-maximal inhibitory concentration (IC50) was 34.3 µM and the inhibition constant Ki is 16 ± 1 µM. Further, at STAT6, the IC50 came to 53 µM and the inhibition constant (Ki) is 26 ± 4 µM.
`O=P(O)(O)Oc1ccc(-c2cccs2)cc1` [8b]: on STAT1, the IC50 was 19.5 µM and the Ki was 8.9 ± 0.5 µM. At STAT6, the IC50 is 19 µM and the inhibition constant (Ki) was 9.4 ± 0.3 µM.
Taken in the same sequence, the figures for `O=P(O)(O)Oc1ccc(-c2ccsc2)cc1` [8a] were 20.2 µM, 9.2 ± 1 µM, 15.8 µM and 7.8 ± 0.7 µM.
With `O=P(O)(O)Oc1ccc(-c2nccs2)cc1` [8c], at STAT1, the IC50 was determined as 83 µM and the Ki is 38 ± 3 µM. Besides, at STAT6, the IC50 worked out at 112 µM and the Ki is 55 ± 1 µM.
On to `Cc1cc(-c2ccc(OP(=O)(O)O)c(F)c2)cs1` [8f], for which, on STAT1, the IC50 amounted to 9 µM and the Ki is 4.4 ± 0.4 µM. The compound further returned a Kd at STAT4 of 3.1 ± 1 µM. For the same compound, on STAT6, the half-inhibitory concentration (IC50) was 34 µM and the Ki is 17 ± 2 µM.
